Results published in PMC5218480 (PLoS ONE, 2017).

Test system: MV-4-11 cells
Assay: Gene expression microarray analysis (Affymetrix PrimeView) and GSEA
Format: cell-based, human
Set-up: RFU PODN (11730768_x_at) / Fold change /veh PODN (11730768_x_at) / RFU LINC00158 (11744669_a_at) / Fold change /veh LINC00158 (11744669_a_at) / RFU DUSP10 (11751237_a_at) / Fold change /veh DUSP10 (11751237_a_at) / RFU ID3 (11757404_x_at) / Fold change /veh ID3 (11757404_x_at) / RFU PLEKHG5 (11737974_s_at) / Fold change /veh PLEKHG5 (11737974_s_at) / RFU LRRC4B (11730491_at) / Fold change /veh LRRC4B (11730491_at) / RFU GIMAP4 (11747438_a_at) / Fold change /veh GIMAP4 (11747438_a_at) / RFU KRT8 (11758183_x_at) / Fold change /veh KRT8 (11758183_x_at) / RFU CNN1 (11734310_a_at) / Fold change /veh CNN1 (11734310_a_at) / RFU VPS37D (11726825_at) / Fold change /veh VPS37D (11726825_at) / RFU C10orf10 (11716522_x_at) / Fold change /veh C10orf10 (11716522_x_at) / RFU KIR2DL2 /// KIR2DL4 /// KIR2DL5A /// KIR2DL5B /// KIR2DS1 /// KIR2DS2 /// KIR2DS3 /// KIR2DS4 /// KIR3DL3 /// KIR3DL3 /// KIR3DS1 (11738374_at) / Fold change /veh KIR2DL2 /// KIR2DL4 /// KIR2DL5A /// KIR2DL5B /// KIR2DS1 /// KIR2DS2 /// KIR2DS3 /// KIR2DS4 /// KIR3DL3 /// KIR3DL3 /// KIR3DS1 (11738374_at) / RFU C1QL1 (11718748_at) / Fold change /veh C1QL1 (11718748_at) / RFU TMPRSS4 (11747572_a_at) / Fold change /veh TMPRSS4 (11747572_a_at) / RFU HAMP (11756126_x_at) / Fold change /veh HAMP (11756126_x_at) / RFU RNFT2 (11725882_a_at) / Fold change /veh RNFT2 (11725882_a_at) / RFU NR4A2 (11747474_a_at) / Fold change /veh NR4A2 (11747474_a_at) / RFU ABCC12 (11746883_a_at) / Fold change /veh ABCC12 (11746883_a_at) / RFU TMEM136 (11760407_x_at) / Fold change /veh TMEM136 (11760407_x_at) / RFU CLDN22 /// WWC2 (11732394_at) / Fold change /veh CLDN22 /// WWC2 (11732394_at) / RFU HLA-DPB1 (11760878_x_at) / Fold change /veh HLA-DPB1 (11760878_x_at) / RFU SPINT1 (11716480_a_at) / Fold change /veh SPINT1 (11716480_a_at) / RFU GAP43 (11754022_s_at) / Fold change /veh GAP43 (11754022_s_at) / RFU A4GNT (11735810_at) / Fold change /veh A4GNT (11735810_at) / RFU PRB3 (11715151_x_at) / Fold change /veh PRB3 (11715151_x_at) / RFU TUBB4B (11761932_at) / Fold change /veh TUBB4B (11761932_at) / RFU CAPN14 (11732068_a_at) / Fold change /veh CAPN14 (11732068_a_at) / RFU TMCC2 (11721928_a_at) / Fold change /veh TMCC2 (11721928_a_at) / RFU IRGQ (11745062_a_at) / Fold change /veh IRGQ (11745062_a_at) / RFU FAM174B (11720279_a_at) / Fold change /veh FAM174B (11720279_a_at) / RFU TMPRSS4 (11748680_a_at) / Fold change /veh TMPRSS4 (11748680_a_at) / RFU FAM212B (11763350_a_at) / Fold change /veh FAM212B (11763350_a_at) / RFU PLEKHG5 (11743358_a_at) / Fold change /veh PLEKHG5 (11743358_a_at) / RFU ZSCAN30 (11745921_a_at) / Fold change /veh ZSCAN30 (11745921_a_at) / RFU CMKLR1 (11741424_a_at) / Fold change /veh CMKLR1 (11741424_a_at) / RFU LOC101060620 /// MAPK8IP1 (11723275_at) / Fold change /veh LOC101060620 /// MAPK8IP1 (11723275_at) / RFU SPTSSB (11747773_x_at) / Fold change /veh SPTSSB (11747773_x_at) / RFU PRSS12 (11739890_at) / Fold change /veh PRSS12 (11739890_at) / RFU BIN1 (11741810_x_at) / Fold change /veh BIN1 (11741810_x_at) / RFU WNT11 (11732464_a_at) / Fold change /veh WNT11 (11732464_a_at) / RFU C10orf10 (11716521_a_at) / Fold change /veh C10orf10 (11716521_a_at) / RFU C5orf56 (11738089_at) / Fold change /veh C5orf56 (11738089_at) / RFU CYB561 (11721691_x_at) / Fold change /veh CYB561 (11721691_x_at) / RFU ANKRD19P (11752326_a_at) / Fold change /veh ANKRD19P (11752326_a_at) / RFU OR2T12 /// OR2T33 /// OR2T8 (11738714_s_at) / Fold change /veh OR2T12 /// OR2T33 /// OR2T8 (11738714_s_at) / RFU VCAN (11748164_a_at) / Fold change /veh VCAN (11748164_a_at) / RFU JSRP1 (11732532_at) / Fold change /veh JSRP1 (11732532_at) / RFU KRTAP10-11 (11738290_x_at) / Fold change /veh KRTAP10-11 (11738290_x_at) / RFU MYO3A (11730013_a_at) / Fold change /veh MYO3A (11730013_a_at) / RFU EBF3 (11725865_a_at) / Fold change /veh EBF3 (11725865_a_at) / RFU CAMK2N1 (11719241_x_at) / Fold change /veh CAMK2N1 (11719241_x_at) / RFU C5orf56 (11738088_a_at) / Fold change /veh C5orf56 (11738088_a_at) / RFU OLFML3 (11715873_a_at) / Fold change /veh OLFML3 (11715873_a_at) / RFU LOC100653217 /// NTM (11731650_a_at) / Fold change /veh LOC100653217 /// NTM (11731650_a_at) / RFU MAPK11 (11762145_a_at) / Fold change /veh MAPK11 (11762145_a_at) / RFU FIZ1 (11724087_x_at) / Fold change /veh FIZ1 (11724087_x_at) / RFU OASL (11726364_x_at) / Fold change /veh OASL (11726364_x_at) / RFU SOX15 (11748057_x_at) / Fold change /veh SOX15 (11748057_x_at) / RFU CD79A (11719716_a_at) / Fold change /veh CD79A (11719716_a_at) / RFU HIST1H1D (11736915_at) / Fold change /veh HIST1H1D (11736915_at) / RFU CASKIN2 (11723855_a_at) / Fold change /veh CASKIN2 (11723855_a_at) / RFU LOC730098 (11760151_x_at) / Fold change /veh LOC730098 (11760151_x_at) / RFU OR4N2 (11742367_at) / Fold change /veh OR4N2 (11742367_at) / RFU PRRT2 (11749266_a_at) / Fold change /veh PRRT2 (11749266_a_at) / RFU SNX32 (11753110_a_at) / Fold change /veh SNX32 (11753110_a_at) / RFU CDHR5 (11726645_a_at) / Fold change /veh CDHR5 (11726645_a_at) / RFU RCAN1 (11760418_a_at) / Fold change /veh RCAN1 (11760418_a_at) / RFU FAM167A (11723789_a_at) / Fold change /veh FAM167A (11723789_a_at) / RFU FAM26E (11764081_at) / Fold change /veh FAM26E (11764081_at) / RFU ISYNA1 (11749810_s_at) / Fold change /veh ISYNA1 (11749810_s_at) / RFU ACY1 (11761880_at) / Fold change /veh ACY1 (11761880_at) / RFU 11764098_at / Fold change /veh 11764098_at / RFU SAMD14 (11745864_x_at) / Fold change /veh SAMD14 (11745864_x_at) / RFU NPB (11741838_a_at) / Fold change /veh NPB (11741838_a_at) / RFU TMPRSS6 (11731388_a_at) / Fold change /veh TMPRSS6 (11731388_a_at) / RFU KRTAP10-2 (11738614_at) / Fold change /veh KRTAP10-2 (11738614_at) / RFU ARHGAP8 /// PRR5-ARHGAP8 (11727945_x_at) / Fold change /veh ARHGAP8 /// PRR5-ARHGAP8 (11727945_x_at) / RFU KRTAP5-7 /// NADSYN1 (11734609_at) / Fold change /veh KRTAP5-7 /// NADSYN1 (11734609_at) / RFU RASL12 (11751679_a_at) / Fold change /veh RASL12 (11751679_a_at) / RFU CDKN2B (11736163_a_at) / Fold change /veh CDKN2B (11736163_a_at) / RFU PRF1 (11729649_at) / Fold change /veh PRF1 (11729649_at) / RFU, ZNF638 /// ZNF638-IT1 / Fold change vs veh, ZNF638 /// ZNF638-IT1 / RFU, PANK3 / Fold change vs veh, PANK3 / RFU, SH3YL1 / Fold change vs veh, SH3YL1 / RFU, ZEB2 / Fold change vs veh, ZEB2 / RFU, NRIP1 / Fold change vs veh, NRIP1 / RFU, PTTG1IP / Fold change vs veh, PTTG1IP / RFU, CAPN2 / Fold change vs veh, CAPN2 / RFU, MED14 / Fold change vs veh, MED14 / RFU, SNORA58 / Fold change vs veh, SNORA58 / RFU, C1orf63 / Fold change vs veh, C1orf63 / RFU, LRRFIP1 / Fold change vs veh, LRRFIP1 / RFU, NDUFAF7 / Fold change vs veh, NDUFAF7 / RFU, SLC12A2 / Fold change vs veh, SLC12A2 / RFU, IBTK / Fold change vs veh, IBTK / RFU, ESF1 / Fold change vs veh, ESF1 / Fold change vs veh, TMEM50B / RFU, TAOK1 / Fold change vs veh, TAOK1 / RFU, ACBD3 / Fold change vs veh, ACBD3 / RFU, TMA16 / Fold change vs veh, TMA16 / RFU, RWDD3 / Fold change vs veh, RWDD3 / RFU, BCAT1 / Fold change vs veh, BCAT1 / RFU, EDEM3 / Fold change vs veh, EDEM3 / RFU, TMEM33 / Fold change vs veh, TMEM33 / RFU, WDR75 / Fold change vs veh, WDR75 / RFU, AHCTF1 / Fold change vs veh, AHCTF1 / RFU, TFRC / Fold change vs veh, TFRC / RFU, ZDHHC17 / Fold change vs veh, ZDHHC17 / RFU, NOM1 / Fold change vs veh, NOM1 / RFU, ARL8B / Fold change vs veh, ARL8B / RFU, ZBTB11 / Fold change vs veh, ZBTB11 / RFU, TAMM41 / Fold change vs veh, TAMM41 / RFU, KIAA1704 /// LOC100996395 / Fold change vs veh, KIAA1704 /// LOC100996395 / RFU, ING1 / Fold change vs veh, ING1 / RFU, TRMT61B / Fold change vs veh, TRMT61B / RFU, FUBP3 / Fold change vs veh, FUBP3 / RFU, TP53 / Fold change vs veh, TP53 / RFU, TNKS2 / Fold change vs veh, TNKS2 / RFU, ZFP14 / Fold change vs veh, ZFP14 / RFU, ACTR2 / Fold change vs veh, ACTR2 / RFU, PPP3R1 / Fold change vs veh, PPP3R1 / RFU, PIK3R1 / Fold change vs veh, PIK3R1 / RFU, HNRNPA1 / Fold change vs veh, HNRNPA1 / RFU, RNF170 / Fold change vs veh, RNF170 / RFU, ZNF28 / Fold change vs veh, ZNF28 / RFU, RNGTT / Fold change vs veh, RNGTT / RFU, OGT / Fold change vs veh, OGT / RFU, BRD1 / Fold change vs veh, BRD1 / RFU, MARS / Fold change vs veh, MARS / RFU, ZNF655 / Fold change vs veh, ZNF655 / RFU, FAHD1 / Fold change vs veh, FAHD1 / RFU, BDP1 / Fold change vs veh, BDP1 / RFU, LRRCC1 / Fold change vs veh, LRRCC1 / RFU, ARID1A / Fold change vs veh, ARID1A / RFU, ZNF146 / Fold change vs veh, ZNF146 / RFU, ZNF330 / Fold change vs veh, ZNF330 / RFU, GPN3 / Fold change vs veh, GPN3 / RFU, C9orf123 / Fold change vs veh, C9orf123 / RFU, N4BP2L2 / Fold change vs veh, N4BP2L2 / RFU, ARFIP1 / Fold change vs veh, ARFIP1 / RFU, FAM179B / Fold change vs veh, FAM179B / RFU, BCL10 / Fold change vs veh, BCL10 / RFU, UHRF1BP1L / Fold change vs veh, UHRF1BP1L / RFU, BET1 / Fold change vs veh, BET1 / RFU, CNOT2 / Fold change vs veh, CNOT2 / RFU, ZNF268 / Fold change vs veh, ZNF268 / Fold change vs veh, ZNF507 / RFU, DGCR2 / Fold change vs veh, DGCR2 / RFU, WDSUB1 / Fold change vs veh, WDSUB1 / Fold change vs veh, HSP90B1 /// MIR3652 / RFU, ADSS / Fold change vs veh, ADSS / RFU, GK / Fold change vs veh, GK / RFU, ZNF148 / Fold change vs veh, ZNF148 / RFU, TAF9 / Fold change vs veh, TAF9 / RFU, SLC1A5 / Fold change vs veh, SLC1A5 / RFU, SLMO2 / Fold change vs veh, SLMO2 / RFU, ABCC4 / Fold change vs veh, ABCC4 / RFU, LOC101060439 /// RAP1B / Fold change vs veh, LOC101060439 /// RAP1B / RFU, RFX7 / Fold change vs veh, RFX7 / RFU, GTPBP10 / Fold change vs veh, GTPBP10 / RFU, CNEP1R1 / Fold change vs veh, CNEP1R1 / RFU, BIVM-ERCC5 /// ERCC5 / Fold change vs veh, BIVM-ERCC5 /// ERCC5 / RFU, ILF3 / Fold change vs veh, ILF3 / RFU 11762660_at / Fold change /veh 11762660_at / RFU VCAN (11757783_s_at) / Fold change /veh VCAN (11757783_s_at) / RFU DDX43 (11728927_at) / Fold change /veh DDX43 (11728927_at) / RFU KRT8 (11758188_x_at) / Fold change /veh KRT8 (11758188_x_at) / RFU NKD1 (11759106_at) / Fold change /veh NKD1 (11759106_at) / RFU SRD5A1 (11742802_a_at) / Fold change /veh SRD5A1 (11742802_a_at) / RFU TPSAB1 /// TPSB2 (11721975_s_at) / Fold change /veh TPSAB1 /// TPSB2 (11721975_s_at) / RFU GSTM3 (11746129_a_at) / Fold change /veh GSTM3 (11746129_a_at) / RFU IL23R (11737362_x_at) / Fold change /veh IL23R (11737362_x_at) / RFU TMEM51 (11727254_a_at) / Fold change /veh TMEM51 (11727254_a_at) / RFU PIWIL2 (11732686_x_at) / Fold change /veh PIWIL2 (11732686_x_at) / RFU ORM1 (11744905_x_at) / Fold change /veh ORM1 (11744905_x_at) / RFU CCDC152 (11743942_at) / Fold change /veh CCDC152 (11743942_at) / RFU ECM1 (11717891_a_at) / Fold change /veh ECM1 (11717891_a_at) / RFU IL23R (11748794_a_at) / Fold change /veh IL23R (11748794_a_at) / RFU TNFAIP8L3 (11732012_x_at) / Fold change /veh TNFAIP8L3 (11732012_x_at) / RFU MBOAT4 (11741988_at) / Fold change /veh MBOAT4 (11741988_at) / RFU 11764193_at / Fold change /veh 11764193_at / RFU TMEM53 (11763286_at) / Fold change /veh TMEM53 (11763286_at) / RFU MAGEB2 (11727129_at) / Fold change /veh MAGEB2 (11727129_at) / RFU TMEM200A (11744735_a_at) / Fold change /veh TMEM200A (11744735_a_at) / RFU CCDC152 (11751479_a_at) / Fold change /veh CCDC152 (11751479_a_at) / RFU FAM211A (11726209_a_at) / Fold change /veh FAM211A (11726209_a_at) / RFU RGS16 (11746705_a_at) / Fold change /veh RGS16 (11746705_a_at) / RFU VCAN (11755009_s_at) / Fold change /veh VCAN (11755009_s_at) / RFU RHOB (11743442_s_at) / Fold change /veh RHOB (11743442_s_at) / RFU RGS16 (11720943_a_at) / Fold change /veh RGS16 (11720943_a_at) / RFU RGS16 (11720944_at) / Fold change /veh RGS16 (11720944_at) / RFU, VPS4B / Fold change vs veh, VPS4B / RFU, CREB1 / Fold change vs veh, CREB1 / RFU, DNAJC13 / Fold change vs veh, DNAJC13 / RFU, GNAQ / Fold change vs veh, GNAQ / RFU, CDK5R1 / Fold change vs veh, CDK5R1 / RFU, ZRANB3 / Fold change vs veh, ZRANB3 / RFU, CUL4A / Fold change vs veh, CUL4A / RFU, CCNY / Fold change vs veh, CCNY / RFU, UFL1 / Fold change vs veh, UFL1 / RFU, COG3 / Fold change vs veh, COG3 / RFU, DIAPH2 / Fold change vs veh, DIAPH2 / RFU, SKA2 / Fold change vs veh, SKA2 / RFU, AFF3 / Fold change vs veh, AFF3 / RFU, LMF1 / Fold change vs veh, LMF1 / RFU, IPO11 / Fold change vs veh, IPO11 / RFU, DFFB / Fold change vs veh, DFFB / RFU, FOXP1 / Fold change vs veh, FOXP1 / RFU, CARD8 / Fold change vs veh, CARD8 / RFU, STRN3 / Fold change vs veh, STRN3 / RFU, ADK / Fold change vs veh, ADK / RFU, RASSF2 / Fold change vs veh, RASSF2 / RFU, WIPF1 / Fold change vs veh, WIPF1 / RFU, LARP1B / Fold change vs veh, LARP1B / RFU, RASA1 / Fold change vs veh, RASA1 / RFU, RB1 / Fold change vs veh, RB1 / RFU, PPFIA1 / Fold change vs veh, PPFIA1 / RFU, MAT2A / Fold change vs veh, MAT2A / RFU, CCT5 / Fold change vs veh, CCT5 / RFU, WDR92 / Fold change vs veh, WDR92 / RFU, CUX1 / Fold change vs veh, CUX1 / RFU, TTC7A / Fold change vs veh, TTC7A / RFU, TMEM135 / Fold change vs veh, TMEM135 / RFU, DEPTOR / Fold change vs veh, DEPTOR / RFU, CPM / Fold change vs veh, CPM / RFU, DNAJB6 / Fold change vs veh, DNAJB6 / RFU, CACNA2D3 / Fold change vs veh, CACNA2D3 / RFU, DTX4 / Fold change vs veh, DTX4 / RFU, TFCP2 / Fold change vs veh, TFCP2 / RFU, GMCL1 /// GMCL1P1 / Fold change vs veh, GMCL1 /// GMCL1P1 / RFU, AEBP2 / Fold change vs veh, AEBP2 / RFU, SNHG1 /// SNORD22 /// SNORD25 /// SNORD26 /// SNORD27 /// SNORD28 /// SNORD29 /// SNORD31 / Fold change vs veh, SNHG1 /// SNORD22 /// SNORD25 /// SNORD26 /// SNORD27 /// SNORD28 /// SNORD29 /// SNORD31 / Fold change (Aza/veh), C12orf56 (ProbeSet 11735607_a_at) / Fold change (ACY-1035/veh), C12orf56 (ProbeSet 11735607_a_at) / Fold change (Aza/veh), FGFR1OP (ProbeSet 11751329_s_at) / Fold change (ACY-1035/veh), FGFR1OP (ProbeSet 11751329_s_at) / Fold change (Aza/veh), VPS36 (ProbeSet 11739960_a_at) / Fold change (ACY-1035/veh), VPS36 (ProbeSet 11739960_a_at) / RFU SYPL1 (11715823_x_at) / Fold change /veh SYPL1 (11715823_x_at) / RFU IGFBP7 (11715501_s_at) / Fold change /veh IGFBP7 (11715501_s_at) / RFU REEP3 (11722064_at) / Fold change /veh REEP3 (11722064_at) / RFU IGLL1 (11728026_x_at) / Fold change /veh IGLL1 (11728026_x_at): dose or concentration left out as unconfirmed
Conditions: ProbeSet 11718977_a_at; LIST B

Nc1ccc(-c2cccs2)cc1NC(=O)c1ccc2c(c1)cc(C1CC1)n2CCN1CCOCC1 [ACY-1035]
Fold change vs veh, CAPN2: 0.88
